Columns and labels:
CD-1 mice = test: Maximal Electroshock Assay (Mouse); type: in vivo; details: mouse MES, 1 h and 4 h pretreatment timepoints
Protocol: Male, CD-1 mice (20-30 g body weight) were orally pretreated with test compound or vehicle control, and either at 1 h or 4 h post dose a maximal electroshock (45 mA amplitude, 0.2 s duration, 60 Hz) was applied by corneal electrodes. […] Animals received only one electroshock and so separate animals were used for the 1 h and 4 h timepoints. All drugs were administered in multiple doses.

Sprague-Dawley rats = test: Maximal Electroshock Assay (Rat); type: in vivo; details: rat MES, 0.5 h and 4 h pretreatment timepoints
Protocol: Male, Sprague-Dawley rats (approx. 100 g body weight) were prescreened for tonic seizure susceptibility prior to drug testing. […] Protection was defined by the absence of a tonic extensor seizure in the animal within 20 s of application of the electrical stimulus, which typically occurred in all vehicle pretreated animals. Animals received only one electroshock on the drug test day and so separate animals were used for the 0.5 h and 4 h timepoints. All drugs were administered in multiple doses.

SNI rats = test: Spared nerve injury (SNI) model, mechanical allodynia; type: in vivo, rat; details: 30 mg/kg, i.p.
Protocol: The compounds were tested for their efficacy in reducing mechanical allodynia and cold allodynia in the spared nerve injury (SNI) model of chronic neuropathic pain. In this model, the left sciatic nerve of the rat is exposed under anesthesia. Two of the branches of the sciatic nerve viz. the common peroneal and tibial nerve are ligated and sectioned. The third branch (sural nerve) is left intact. The animals were allowed a post-operative recovery period of 7 days before they were subjected to any test.
The presence of mechanical allodynia was assessed using the Dynamic Plantar Aesthesiometer (Ugo Basile, Italy) which is a modified version of the Von Frey Hair test. In this, a test filament is positioned below the animal's hind paw and the unit is activated which causes the filament to move up and touch the plantar surface of the hind paw. Increasing force is applied to the paw via the filament. […] The cut-off force is set at 50 g. The tests were done on both the non-injured (control) and the injured (SNI) paw.
Testing of compounds was done after 21 days post-operatively. After initial basal readings were taken, the test compound or the vehicle was administered (10 ml/kg) either intraperitoneally (30 mg/kg) or orally (60 mg/kg). The readings were taken again 30, 60 and 180 min after the compound/vehicle administration.

SMILES	melting point [°C]	duration of action (CD-1 mice)	duration of action (Sprague-Dawley rats)	withdrawal threshold, Post Admin 60 min (SNI rats) [g]
CC(=O)N[C@H](COC(F)F)C(=O)NCc1ccc(F)cc1	162.7			
CC(=O)N[C@H](COC(F)F)C(=O)NCc1ccc(Cl)cc1 [Compound 20, (2R)-2-(acetylamino)-N-(4-chlorobenzyl)-3-(difluoromethoxy)propanamide]		longer than Lacosamide	longer than Lacosamide	25.3 ± 3.2
CC(=O)NC(COC(F)F)C(=O)NCc1ccc(F)cc1 (centres unmarked) [Compound 4]		longer than Lacosamide	longer than Lacosamide	
CC(=O)NC(COC(F)F)C(=O)NCc1ccccc1 (centres unmarked) [Compound 3, 2-(Acetylamino)-N-benzyl-3-(difluoro-methoxy)propanamide]		longer than Lacosamide	longer than Lacosamide	
